Values quoted from earlier work as cited in paper PMC4128785 (Molecular Pharmaceutics, 2014).

Conditions: Sc(III) complex of DOTA

- thermodynamic stability (−log K): 27.0
SMILES: O=C(O)CN1CCN(CC(=O)O)CCN(CC(=O)O)CCN(CC(=O)O)CC1 [DOTA, 1,4,7,10-tetraazacyclododecane-N,N′,N″,N‴-tetraacetic acid]
